According to patent US9820943B2, “Micronized amoxicillin” (DSM SINOCHEM PHARMACEUTICALS NETHERLANDS B.V., priority 2013, dated 2017):
Values belong to the molecule of their own block, whether it stands above or below them.

Assays:
Assay type in all cases: physicochemical
[1] = Particle size distribution by laser diffraction (Malvern); conditions: trihydrate
Protocol: Particle size distribution values D10, D50, D90 and D100 were determined using laser diffraction applying Malvern equipment. A suitable apparatus for determining D10, D50, D90 and D100 is a Malvern particle sizer 2600 C or a Malvern Zeta Sizer.
(§1) Parameters operated were: • Augar Speed: 5-90 rpm • Primary Air Pressure: 2-8 kg·cm^−2 • Secondary Air Pressure: 4-10 kg·cm^−2 The surface area (in triplicate), average particle size and contact angle (in quadruplicate) were determined as outlined in the General section. The purity of the amoxicillin trihydrate samples was 99.4±0.3% and were void of dichloromethane, isopropanol, pivalic acid and triethyl amine.

[2] = Powder dissolution, USP/NF paddle method with HPLC analysis; conditions: 500 mg in 900 mL water, 37 °C, 75 rpm; for Amoxicillin released in solution Mean: mean of 3; for Amoxicillin released in solution #1: replicate #1; for Amoxicillin released in solution #2: replicate #2; for Amoxicillin released in solution #3: replicate #3
Protocol: Dissolution analysis of amoxicillin trihydrate powder samples was carried out using the USP/NF paddle method at a rotational speed of 75 rpm. Ultrapure ELGA laboratory water (900 mL) was used as dissolution medium. Media were equilibrated to 37.0±0.5° C. prior to dissolution. Amoxicillin trihydrate sample powder (500 mg) was directly added to the dissolution apparatus (Electrolab USP-24, India). Samples were collected at 0, 1, 3, 5, 10, 15, 30, 60 and 90 min, filtered through 0.2 μm filters and analyzed by HPLC. Dissolution profiles were constructed by plotting the percentage amoxicillin released against time.
The HPLC system (Shimadzu Corporation, Kyoto, Japan) comprised of an SCL-10A VP system controller, LC-10AT VP liquid chromatograph, FCV-10AL VP flow control valve, DGU-14A degasser, SIL-10AD VP auto-injector, CTO-10AS VP column oven, SPD-M20A prominence diode array (PDA) detector and data acquisition Class-VP 6.10 software. The HPLC method was adopted from the United States Pharmacopoeia (USP). The method was validated for linearity, precision, accuracy and intra- and inter-day variability. The mobile phase was 50 mM monobasic potassium phosphate:methanol (96:4, v/v, pH 5.0). All analyses were carried out using Lichrospher® 100 RP-18e analytical column (5 μm, Merck KGaA, Darmstadt, Germany) under isocratic conditions at a flow rate of 1.0 mL·min^−1 at 25° C. with 20 μL injection volume. Effluent was monitored at a wavelength of 230 nm. Samples for calibration curve generation were prepared in 50 mM monobasic potassium phosphate:methanol 1:1 (v/v) proportion at a concentration range of 1 to 600 μg·mL^−1.
The three non-micronized (i.e. entries 1-3 of Table 1) and micronized (i.e. entries 4-6 of Table 1) amoxicillin trihydrate samples of Example 1 were subjected to a powder dissolution test (in triplicate) as outlined in the General section.

[3] = Specific powder surface area by nitrogen gas sorption (BET); conditions: triplicate, trihydrate
Protocol: Specific powder surface area was determined using nitrogen gas sorption (Smartsorb, Smart Instruments, Mumbai, India). Prior to measurements, samples were regenerated by degassing to remove moisture and contamination. The regenerated sample was dipped in liquid nitrogen and the quantity of the adsorbed gas was measured using a thermal conductivity detector and subsequently integrated using an electronic circuit in terms of counts. The instrument was calibrated by injecting a known quantity of nitrogen. The measured parameters were subsequently used to calculate the surface area of the sample by employing the adsorption theories of Brunauer, Emmett and Teller (BET).
as §1

[4] = Contact angle by sessile drop method (water); conditions: ambient conditions, trihydrate
Protocol: Contact angles of amoxicillin trihydrate powder samples were measured by the sessile drop method using an Drop Shape Analyzer instrument (FTA 1000, First Ten Angstrom, Virginia, USA). Powder samples were mounted on double sided adhesive tape adhered to a glass slide and excess powder was removed by tapping the slide. A drop of probe liquid (water) was dispersed onto the sample surface and video images were captured by the FTA image analyzer. The contact angle was calculated by the instrument by fitting a mathematical expression to the shape of the drop followed by calculating the slope of the tangent to the drop at the liquid-solid-vapor interface line. The surface tension of ultrapure ELGA laboratory water was measured to be 73±0.5 mN·m^−1 at 25° C. All measurements were performed in air under ambient conditions and an average of four measurements was reported in the below Examples.
as §1

- Average Particle Size D10 [1]: 12.3 μm
- Average Particle Size D50 [1]: 39.8 μm
- Average Particle Size D90 [1]: 93.3 μm
- Average Particle Size D100 [1]: 275.9 μm
- Amoxicillin released in solution Mean ([2]; 0 min): 0%
- Amoxicillin released in solution #1 ([2]; 0 min): 0%
- Amoxicillin released in solution #2 ([2]; 0 min): 0%
- Amoxicillin released in solution #3 ([2]; 0 min): 0%
- Amoxicillin released in solution Mean ([2]; 1 min, trihydrate): 85.98%
- Amoxicillin released in solution #1 ([2]; 1 min, trihydrate): 84.65%
- Amoxicillin released in solution #2 ([2]; 1 min, trihydrate): 86.65%
- Amoxicillin released in solution #3 ([2]; 1 min, trihydrate): 86.65%
- Amoxicillin released in solution Mean ([2]; 3 min, trihydrate): 99.25%
- Amoxicillin released in solution #1 ([2]; 3 min, trihydrate): 99.74%
- Amoxicillin released in solution #2 ([2]; 3 min, trihydrate): 99.01%
- Amoxicillin released in solution #3 ([2]; 3 min, trihydrate): 99.01%
- Amoxicillin released in solution Mean ([2]; 5 min, trihydrate): 99.51%
- Amoxicillin released in solution #1 ([2]; 5 min, trihydrate): 99.44%
- Amoxicillin released in solution #2 ([2]; 5 min, trihydrate): 99.54%
- Amoxicillin released in solution #3 ([2]; 5 min, trihydrate): 99.54%
- Amoxicillin released in solution Mean ([2]; 10 min, trihydrate): 99.14%
- Amoxicillin released in solution #1 ([2]; 10 min, trihydrate): 98.65%
- Amoxicillin released in solution #2 ([2]; 10 min, trihydrate): 99.04%
- Amoxicillin released in solution #3 ([2]; 10 min, trihydrate): 99.73%
- Amoxicillin released in solution Mean ([2]; 15 min, trihydrate): 99.12%
- Amoxicillin released in solution #1 ([2]; 15 min, trihydrate): 99.28%
- Amoxicillin released in solution #2 ([2]; 15 min, trihydrate): 98.69%
- Amoxicillin released in solution #3 ([2]; 15 min, trihydrate): 99.38%
- Amoxicillin released in solution Mean ([2]; 30 min, trihydrate): 99.31%
- Amoxicillin released in solution #1 ([2]; 30 min, trihydrate): 99.50%
- Amoxicillin released in solution #2 ([2]; 30 min, trihydrate): 99.56%
- Amoxicillin released in solution #3 ([2]; 30 min, trihydrate): 98.87%
- Amoxicillin released in solution Mean ([2]; 60 min, trihydrate): 99.25%
- Amoxicillin released in solution #1 ([2]; 60 min, trihydrate): 99.56%
- Amoxicillin released in solution #2 ([2]; 60 min, trihydrate): 99.10%
- Amoxicillin released in solution #3 ([2]; 60 min, trihydrate): 99.10%
- Amoxicillin released in solution Mean ([2]; 90 min, trihydrate): 99.76%
- Amoxicillin released in solution #1 ([2]; 90 min, trihydrate): 99.93%
- Amoxicillin released in solution #2 ([2]; 90 min, trihydrate): 99.61%
- Amoxicillin released in solution #3 ([2]; 90 min, trihydrate): 99.74%
- Surface Area Mean ± SD (n = 3) [3]: 0.58 ± 0.09 m^2 · g^−1
- Contact Angle Mean ± SD (n = 4) [4]: 75.50 ± 2.95
SMILES: CC1(C)S[C@@H]2[C@H](NC(=O)[C@H](N)c3ccc(O)cc3)C(=O)N2[C@H]1C(=O)O.O.O.O [entry 1, amoxicillin trihydrate]

- Average Particle Size D10 [1]: 13.5 μm
- Average Particle Size D50 [1]: 40.6 μm
- Average Particle Size D90 [1]: 94.3 μm
- Average Particle Size D100 [1]: 237.5 μm
- Amoxicillin released in solution Mean ([2]; 0 min): 0%
- Amoxicillin released in solution #1 ([2]; 0 min): 0%
- Amoxicillin released in solution #2 ([2]; 0 min): 0%
- Amoxicillin released in solution #3 ([2]; 0 min): 0%
- Amoxicillin released in solution Mean ([2]; 1 min, trihydrate): 61.71%
- Amoxicillin released in solution #1 ([2]; 1 min, trihydrate): 61.68%
- Amoxicillin released in solution #2 ([2]; 1 min, trihydrate): 61.21%
- Amoxicillin released in solution #3 ([2]; 1 min, trihydrate): 62.23%
- Amoxicillin released in solution Mean ([2]; 3 min, trihydrate): 99.69%
- Amoxicillin released in solution #1 ([2]; 3 min, trihydrate): 99.58%
- Amoxicillin released in solution #2 ([2]; 3 min, trihydrate): 99.88%
- Amoxicillin released in solution #3 ([2]; 3 min, trihydrate): 99.60%
- Amoxicillin released in solution Mean ([2]; 5 min, trihydrate): 98.99%
- Amoxicillin released in solution #1 ([2]; 5 min, trihydrate): 99.89%
- Amoxicillin released in solution #2 ([2]; 5 min, trihydrate): 99.79%
- Amoxicillin released in solution #3 ([2]; 5 min, trihydrate): 97.29%
- Amoxicillin released in solution Mean ([2]; 10 min, trihydrate): 99.66%
- Amoxicillin released in solution #1 ([2]; 10 min, trihydrate): 99.66%
- Amoxicillin released in solution #2 ([2]; 10 min, trihydrate): 98.95%
- Amoxicillin released in solution #3 ([2]; 10 min, trihydrate): 100.36%
- Amoxicillin released in solution Mean ([2]; 15 min, trihydrate): 99.43%
- Amoxicillin released in solution #1 ([2]; 15 min, trihydrate): 99.51%
- Amoxicillin released in solution #2 ([2]; 15 min, trihydrate): 98.98%
- Amoxicillin released in solution #3 ([2]; 15 min, trihydrate): 99.80%
- Amoxicillin released in solution Mean ([2]; 30 min, trihydrate): 99.33%
- Amoxicillin released in solution #1 ([2]; 30 min, trihydrate): 99.65%
- Amoxicillin released in solution #2 ([2]; 30 min, trihydrate): 99.00%
- Amoxicillin released in solution #3 ([2]; 30 min, trihydrate): 99.34%
- Amoxicillin released in solution Mean ([2]; 60 min, trihydrate): 99.45%
- Amoxicillin released in solution #1 ([2]; 60 min, trihydrate): 99.56%
- Amoxicillin released in solution #2 ([2]; 60 min, trihydrate): 99.17%
- Amoxicillin released in solution #3 ([2]; 60 min, trihydrate): 99.60%
- Amoxicillin released in solution Mean ([2]; 90 min, trihydrate): 99.15%
- Amoxicillin released in solution #1 ([2]; 90 min, trihydrate): 99.24%
- Amoxicillin released in solution #2 ([2]; 90 min, trihydrate): 99.24%
- Amoxicillin released in solution #3 ([2]; 90 min, trihydrate): 98.96%
- Surface Area Mean ± SD (n = 3) [3]: 0.69 ± 0.03 m^2 · g^−1
- Contact Angle Mean ± SD (n = 4) [4]: 67.70 ± 1.39
SMILES: CC1(C)S[C@@H]2[C@H](NC(=O)[C@H](N)c3ccc(O)cc3)C(=O)N2[C@H]1C(=O)O.O.O.O [entry 2, amoxicillin trihydrate]
